From patent US20130053381A1, “2,4-DIOXO-1,4-DIHYDRO-2H-QUINAZOLIN-3-YL-SULFONAMIDE DERIVATIVES” (NOVARTIS AG, priority 2010, published 2013)

These molecules were tested on OF1 mice (assay: Maximal electroshock test (MES Test)). Details: Mus musculus, po; 50 mg/kg, p.o., pre-treatment time −0.5 h (footnote d); read-out: %-Protection.
Format: in vivo
Protocol: Compounds of the invention were tested in OF1 mice using the maximal electroshock test (MES Test) described in detail by Schmutz et al., Naunyn-Schmiedeberg's Arch Pharmacol 1990, 342, 61-66. Briefly, generalized tonic-clonic convulsions of the hind extremities were induced by passing electrical current through temporal electrodes (50 Hz, 18 mA, 0.2s). […] 30 mg/kg carbamazepine was used as a positive control; mice were classified as protected by a compound If the duration of the seizure lasted only 3 second or less. Five mice were used for each treatment condition and the percentage of protected mice was used as readout (i.e. a compound could give 0%, 20%, 40%, 60%, 80% or 100% protection). Usually, compounds of the invention or their parents were given at a dose of 50 mg/kg, p.o., 1 hour prior to induction of convulsions (i.e. “pre-treatment time −1 h”).
ED50 values (ED: effective dose) were calculated using GraphPad Prism, v4.02. after shock administration, mouse blood was collected for determination of compounds' blood exposure.

SMILES	responders at 50 mg/kg [%]
CC(=O)N(n1c(=O)[nH]c2cc(C(C)C)c(-c3ccnn3C)cc2c1=O)S(C)(=O)=O [Example 3.01, N-Acetyl-N-[7-isopropyl-6-(2-methyl-2H-pyrazol-3-yl)-2,4-dioxo-1,4-dihydro-2H-quinazolin-3-yl]-methanesulfonamide]	100

Same assay, conditions: Mus musculus, po; 50 mg/kg, p.o., pre-treatment time −1 h; read-out: %-Protection

SMILES	responders at 50 mg/kg [%]
CCCCC(=O)N(n1c(=O)[nH]c2cc(C(F)(F)F)c(-c3ccnn3C)cc2c1=O)S(C)(=O)=O [Example 1.01, N-[6-(2-Methyl-2H-pyrazol-3-yl)-2,4-dioxo-7-trifluoromethyl-1,4-dihydro-2H-guinazolin-3-yl]-N-pentanoyl-methanesulfonamide]	40
CC(C)C(=O)N(n1c(=O)[nH]c2cc(C(F)(F)F)c(-c3ccnn3C)cc2c1=O)S(C)(=O)=O [Example 1.02, N-Isobutyryl-N-[6-(2-methyl-2H-pyrazol-3-yl)-2,4-dioxo-7-trifluoromethyl-1,4-dihydro-2H-quinazolin-3-yl]-methanesulfonamide]	100
CCCC(=O)N(n1c(=O)[nH]c2cc(C(F)(F)F)c(-c3ccnn3C)cc2c1=O)S(C)(=O)=O [Example 1.03, N-Butyryl-N-[6-(2-methyl-2H-pyrazol-3-yl)-2,4-dioxo-7-trifluoromethyl-1,4-dihydro-2H-quinazolin-3-yl]-methanesulfonamide]	100
CCCCCC(=O)N(n1c(=O)[nH]c2cc(C(F)(F)F)c(-c3ccnn3C)cc2c1=O)S(C)(=O)=O [Example 1.04, N-Hexanoyl-N-[6-(2-methyl-2H-pyrazol-3-yl)-2,4-dioxo-7-trifluoromethyl-1,4-dihydro-2H-quinazolin-3-yl]-methanesulfonamide]	80
COC(=O)N(n1c(=O)[nH]c2cc(C(F)(F)F)c(-c3ccnn3C)cc2c1=O)S(C)(=O)=O [Example 1.05, Methanesulfonyl-[6-(2-methyl-2H-pyrazol-3-yl)-2,4-dioxo-7-trifluoromethyl-1,4-dihydro-2H-quinazolin-3-yl]-carbamic acid methyl ester]	80
CC(C)COC(=O)N(n1c(=O)[nH]c2cc(C(F)(F)F)c(-c3ccnn3C)cc2c1=O)S(C)(=O)=O [Example 1.06, Methanesulfonyl-[6-(2-methyl-2H-pyrazol-3-yl)-2,4-dioxo-7-trifluoromethyl-1,4-dihydro-2H-quinazolin-3-yl]-carbamic acid isobutyl ester]	60
COCCOC(=O)N(n1c(=O)[nH]c2cc(C(F)(F)F)c(-c3ccnn3C)cc2c1=O)S(C)(=O)=O [Example 1.07, Methanesulfonyl-[6-(2-methyl-2H-pyrazol-3-yl)-2,4-dioxo-7-trifluoromethyl-1,4-dihydro-2H-quinazolin-3-yl]-carbamic acid 2-methoxy-ethyl ester]	80
CCc1cc2[nH]c(=O)n(N(C(C)=O)S(C)(=O)=O)c(=O)c2cc1-c1ccnn1C [Example 2.01, N-Acetyl-N-[7-ethyl-6-(2-methyl-2H-pyrazol-3-yl)-2,4-dioxo-1,4-dihydro-2H-quinazolin-3-yl]-methanesulfonamide]	100
CCCOC(=O)N(n1c(=O)[nH]c2cc(CC)c(-c3ccnn3C)cc2c1=O)S(C)(=O)=O [Example 2.06, Methanesulfonyl-[7-ethyl-6-(2-methyl-2H-pyrazol-3-yl)-2,4-dioxo-1,4-dihydro-2H-quinazolin-3-yl]-carbamic acid propyl ester]	60
CCc1cc2[nH]c(=O)n(N(C(=O)OC)S(C)(=O)=O)c(=O)c2cc1-c1ccnn1C [Example 2.07, Methanesulfonyl-[7-ethyl-6-(2-methyl-2H-pyrazol-3-yl)-2,4-dioxo-1,4-dihydro-2H-quinazolin-3-yl]-carbamic acid methyl ester]	100
CCOC(=O)N(n1c(=O)[nH]c2cc(CC)c(-c3ccnn3C)cc2c1=O)S(C)(=O)=O [Example 2.08, Methanesulfonyl-[7-ethyl-6-(2-methyl-2H-pyrazol-3-yl)-2,4-dioxo-1,4-dihydro-2H-quinazolin-3-yl]-carbamic acid ethyl ester]	80
CCCCOC(=O)N(n1c(=O)[nH]c2cc(CC)c(-c3ccnn3C)cc2c1=O)S(C)(=O)=O [Example 2.09, Methanesulfonyl-[7-ethyl-6-(2-methyl-2H-pyrazol-3-yl)-2,4-dioxo-1,4-dihydro-2H-quinazolin-3-yl]-carbamic acid butyl ester]	40
CCC(=O)N(n1c(=O)[nH]c2cc(CC)c(-c3ccnn3C)cc2c1=O)S(C)(=O)=O [Example 2.10, N-[7-Ethyl-6-(2-methyl-2H-pyrazol-3-yl)-2,4-dioxo-1,4-dihydro-2H-quinazolin-3-yl]-N-propionyl-methanesulfonamide]	100
CCCCC(=O)N(n1c(=O)[nH]c2cc(CC)c(-c3ccnn3C)cc2c1=O)S(C)(=O)=O [Example 2.11, N-[7-Ethyl-6-(2-methyl-2H-pyrazol-3-yl)-2,4-dioxo-1,4-dihydro-2H-quinazolin-3-yl]-N-pentanoyl-methanesulfonamide]	100
CCc1cc2[nH]c(=O)n(N(C(=O)OC(C)C)S(C)(=O)=O)c(=O)c2cc1-c1ccnn1C [Example 2.12, Methanesulfonyl-[7-ethyl-6-(2-methyl-2H-pyrazol-3-yl)-2,4-dioxo-1,4-dihydro-2H-quinazolin-3-yl]-carbamic acid isopropyl ester]	60
CCCCCOC(=O)N(n1c(=O)[nH]c2cc(CC)c(-c3ccnn3C)cc2c1=O)S(C)(=O)=O [Example 2.13, Methanesulfonyl-[7-ethyl-6-(2-methyl-2H-pyrazol-3-yl)-2,4-dioxo-1,4-dihydro-2H-quinazolin-3-yl]-carbamic acid pentyl ester]	20
CCc1cc2c(cc1-c1ccnn1C)c(=O)n(N(C(C)=O)S(C)(=O)=O)c(=O)n2C(C)=O [Example 2.14, N-Acetyl-N-[1-acetyl-7-ethyl-6-(2-methyl-2H-pyrazol-3-yl)-2,4-dioxo-1,4-dihydro-2H-quinazolin-3-yl]-methanesulfonamide]	100

Same assay, conditions: Mus musculus, po; Dose: 15 mg/kg, p.o. (footnote c), pre-treatment time −1 h; read-out: %-Protection

SMILES	responders at 15 mg/kg [%]
COCCOC(=O)N(n1c(=O)[nH]c2cc(C(C)C)c(-c3ccnn3C)cc2c1=O)S(C)(=O)=O [Example 3.02, [7-Isopropyl-6-(2-methyl-2H-pyrazol-3-yl)-2,4-dioxo-1,4-dihydro-2H-quinazolin-3-yl]-methanesulfonyl-carbamic acid 2-methoxy-ethyl ester]	100

Same assay, conditions: Mus musculus, po; Dose: 25 mg/kg, p.o. (footnote b), pre-treatment time −1 h; read-out: %-Protection

SMILES	responders at 25 mg/kg [%]
CCCC(=O)N(n1c(=O)[nH]c2cc(CC)c(-c3ccnn3C)cc2c1=O)S(C)(=O)=O [Example 2.02, N-Butyryl-N-[7-ethyl-6-(2-methyl-2H-pyrazol-3-yl)-2,4-dioxo-1,4-dihydro-2H-quinazolin-3-yl]-methanesulfonamide]	100
CCCCCC(=O)N(n1c(=O)[nH]c2cc(CC)c(-c3ccnn3C)cc2c1=O)S(C)(=O)=O [Example 2.03, N-[7-Ethyl-6-(2-methyl-2H-pyrazol-3-yl)-2,4-dioxo-1,4-dihydro-2H-quinazolin-3-yl]-N-hexanoyl-methanesulfonamide]	100
CCc1cc2[nH]c(=O)n(N(C(=O)OCC(C)C)S(C)(=O)=O)c(=O)c2cc1-c1ccnn1C [Example 2.04, Methanesulfonyl-[7-ethyl-6-(2-methyl-2H-pyrazol-3-yl)-2,4-dioxo-1,4-dihydro-2H-quinazolin-3-yl]-carbamic acid isobutyl ester]	80
CCc1cc2[nH]c(=O)n(N(C(=O)OCCOC)S(C)(=O)=O)c(=O)c2cc1-c1ccnn1C [Example 2.05, Methanesulfonyl-[7-ethyl-6-(2-methyl-2H-pyrazol-3-yl)-2,4-dioxo-1,4-dihydro-2H-quinazolin-3-yl]-carbamic acid 2-methoxy-ethyl ester]	80

Same assay, conditions: Mus musculus, po; Table 5; 50 mg/kg, p.o., pre-treatment time −0.25 h; read-out: %-Protection

SMILES	responders at 50 mg/kg [%]
CC(=O)N(n1c(=O)[nH]c2cc(C(C)C)c(-c3ccnn3C)cc2c1=O)S(C)(=O)=O [Example 3.01, N-Acetyl-N-[7-isopropyl-6-(2-methyl-2H-pyrazol-3-yl)-2,4-dioxo-1,4-dihydro-2H-quinazolin-3-yl]-methanesulfonamide]	40

Same assay, conditions: Mus musculus, po; Table 5; 50 mg/kg, p.o., pre-treatment time −1 h; read-out: %-Protection

SMILES	responders at 50 mg/kg [%]
CC(=O)N(n1c(=O)[nH]c2cc(C(C)C)c(-c3ccnn3C)cc2c1=O)S(C)(=O)=O [Example 3.01, N-Acetyl-N-[7-isopropyl-6-(2-methyl-2H-pyrazol-3-yl)-2,4-dioxo-1,4-dihydro-2H-quinazolin-3-yl]-methanesulfonamide]	100

Same assay, conditions: Mus musculus; dose of up to 50 mg/kg, p.o., 1 hour prior to induction of convulsions; read-out: %-Protection

SMILES	responders at 50 mg/kg [%]
CCOC(=O)CCC(=O)N(n1c(=O)[nH]c2cc(C(F)(F)F)c(-c3ccnn3C(C)C)cc2c1=O)S(C)(=O)=O [4-{[6-(2-Isopropyl-2H-pyrazol-3-yl)-2,4-dioxo-7-trifluoromethyl-1,4-dihydro-2H-quinazolin-3-yl]-methanesulfonyl-amino}-4-oxo-butyric acid ethyl ester]	0
CCn1nccc1-c1cc2c(=O)n(N(C(=O)COC(C)=O)S(C)(=O)=O)c(=O)[nH]c2cc1C(F)(F)F [Acetic acid 2-{[6-(2-ethyl-2H-pyrazol-3-yl)-2,4-dioxo-7-trifluoromethyl-1,4-dihydro-2H-quinazolin-3-yl]-methanesulfonyl-amino}-2-oxo-ethyl ester]	0
CC(=O)OCC(=O)N(n1c(=O)[nH]c2cc(C(F)(F)F)c(-c3ccnn3C(C)C)cc2c1=O)S(C)(=O)=O [Acetic acid 2-{[6-(2-isopropyl-2H-pyrazol-3-yl)-2,4-dioxo-7-trifluoromethyl-1,4-dihydro-2H-quinazolin-3-yl]-methanesulfonyl-amino}-2-oxo-ethyl ester]	0

Same assay, conditions: Table 5; 50 mg/kg, p.o., pre-treatment time −0.5 h

SMILES	%-Protection [%]
CC(=O)N(n1c(=O)[nH]c2cc(C(C)C)c(-c3ccnn3C)cc2c1=O)S(C)(=O)=O [Example 3.01, N-Acetyl-N-[7-isopropyl-6-(2-methyl-2H-pyrazol-3-yl)-2,4-dioxo-1,4-dihydro-2H-quinazolin-3-yl]-methanesulfonamide]	100
